Legend:
[1] = tested on: C99 cells; experiment: Cytotoxicity on C99 cells, cell viability by Cell Counting Kit-8; format: cell-based, human; settings: 24 h
Description: The cytotoxicity of four test substances (TLVM-5, TLVM-7, TLVM-8, and TLVM-9) on the C99 cells was measured using a method shown below.
In the present test, a medium used for the C99 cells was 500 mL of a Dulbecco's Modified Eagle's Medium (DMEM, Sigma-Aldrich Corp.) supplemented with 55 ml of fetal bovine serum (Biosource), 5.5 ml of MEM non-essential amino acids (Gibco), and 5.5 ml of penicillin/streptomycin (Gibco).
The C99 cells were suspended at a concentration of 0.75×10^5 cells/ml in the medium. The suspension was added at a concentration of 100 μL (0.75×10^4 cells)/well to a 96-well collagen plate (Akita Sumitomo Bakelite Co., Ltd.) and cultured for 2 days. Then, the medium (corresponding to 50 μL/well) in the wells was removed, and a fresh medium was added thereto at a concentration of 30 μL/well. […] Then, the cell viability was measured using Cell Counting Kit-8 (Dojindo Laboratories).

[2] = biological target: T1, γ-secretase (Homo sapiens, UniProt P49768); experiment: Substrate specificity: FLAG-Aβ secretion by HEK293 cells transfected with FLAG APP C99, anti-FLAG immunoprecipitation/western blot; format: cell-based; settings: 0.2 μmol/L; for activity at 0.2 µM: HEK293, 24 h, FLAG APP C99, negative control = 100%, read-out: (i) Aβ secretion rate of HEK293 cells
Description: (§1) Of families constituting human Alcadein (hereinafter, referred to as Alc) known as a substrate for γ-secretase to colocalize with APP in brain neurons, an artificial Alcα fragment (hereinafter, referred to as Alcα C150) whose first extracellular cleavage site and γ-secretase cleavage site were determined was used to study the substrate specificity of the γ-secretase inhibitor of the present invention. β-Alcα produced from a first cleavage construct of Alcα cannot be quantified by sELISA used in Aβ measurement. Therefore, proteins with an attached FLAG tag at the N termini of first cleavage constructs of Alcα and of C99 were expressed by cells. FLAG-Aβ-like peptides secreted into a medium were collected by immunoprecipitation using anti-FLAG antibodies and detected by western blotting using the antibodies. A specific method thereof is shown below.
(§2) HEK293 cells (ATCC) (1×10^7 cells/10 cm dish) cultured in 6 ml of 10% FCS-containing DMEM (Wako Pure Chemical Industries, Ltd.) were transfected with FLAG APP C99 pcDNA3.1 (the nucleotide sequence of its coding region is shown in SEQ ID NO: 2) (J. Biol. Chem., 2003, 278, 49448-49458 (which was prepared from pcDNA3-APPC99)) or with FLAG Alcα C150 pcDNA3.1 (the nucleotide sequence of its coding region is shown in SEQ ID NO: 3) (J. Biol. Chem., 2004, 279, 24343-24354 (which was the same as pcDNA3AlcαΔE)) using Lipofectamine 2000 (Invitrogen Corp.) according to the protocol included in the reagent. Each inhibitor and a positive control (γ-Secretase Inhibitor IX (DAPT)) (Calbiochem Contact Information) were separately added at a concentration of 0.2 or 2 μmol/L. The same dose of DMSO (Wako Pure Chemical Industries, Ltd.) thereas was added as a negative control. 24 hours later, the culture supernatants were collected, and samples were preliminarily purified using beads (100 μL of 50% (v/v) Protein-G Sepharose (GE Healthcare)). Then, 15 μL of 50% (v/v) anti-FLAG antibody M2 beads (Sigma-Aldrich Corp.) were added thereto, and the samples were incubated at 4° C. for 1 hour. The beads were collected by centrifugation and washed three times with a buffer (10 mM Tris-HCl [pH 8.0], 140 mM NaCl, 0.1% n-octyl glucoside, 0.025% sodium azide), and Aβ and β-Alcα in the medium were collected. The proteins were subjected to SDS-PAGE using a 15% Tris-Tricine gel (Anal Biochem., 1987, 166 (2), 368-379) and then transferred to a membrane. The membrane was boiled for 5 minutes in PBS. Then, anti-FLAG M2 antibodies (5 μg/ml) (Sigma-Aldrich Corp.) were added thereto, and the membrane was incubated, followed by detection using a western blotting detection reagent ECL (GE Healthcare). This signal was quantified using Versa-doc system (Bio-Rad Laboratories, Inc.) to calculate protein secretion rates (the protein secretion rate of the negative control is defined as 100%).

[3] = biological target: T1, γ-secretase; experiment: Substrate specificity: β-Alcα secretion by HEK293 cells transfected with FLAG Alcα C150, anti-FLAG immunoprecipitation/western blot; format: cell-based; settings: 0.2 μmol/L; for activity at 0.2 µM: HEK293, 24 h, FLAG Alcα C150, negative control = 100%, read-out: (ii) β-Alcα secretion rate of HEK293 cells
Description: as §1, §2

Compound	Cell viability of C99 cells ([1]; exposure 0.3 μmol/L) [%]	Cell viability of C99 cells ([1]; exposure 1 μmol/L) [%]	Cell viability of C99 cells ([1]; exposure 3 μmol/L) [%]	Cell viability of C99 cells ([1]; exposure 10 μmol/L) [%]	Cell viability of C99 cells ([1]; exposure 30 μmol/L) [%]	Cell viability of C99 cells ([1]; exposure 100 μmol/L) [%]	(i)/(ii) ratio, Aβ / β-Alcα secretion rates [2]	cleavage of APP-C99, in words [2]	activity at 0.2 µM [2] [%]	γ cleavage of the Alcα-C150, in words [3]	activity at 0.2 µM [3] [%]
CSCCC(NC(=O)C(NC(=O)C(CC(C)C)CC(O)C(NC(=O)OC(C)(C)C)C(C)O)C(C)C)C(=O)NCc1ccccc1 [TLVM-5, [5S-(tert-butoxycarbonylamino)-4R,6R-dihydroxy-2R-(2-methylpropyl)heptanoyl]-L-valyl-L-methionine benzylamide]	102	109	112	104	82	46	0.29	specifically inhibited	41	did not inhibit	140
CCCCNC(=O)C(CCSC)NC(=O)C(NC(=O)C(CC(C)C)CC(O)C(NC(=O)OC(C)(C)C)C(C)O)C(C)C [TLVM-7, [5S-(tert-butoxycarbonylamino)-4R,6R-dihydroxy-2R-(2-methylpropyl)heptanoyl]-L-valyl-L-methionine n-butylamide]	92	105	96	102	91	96	0.30	specifically inhibited	36	did not inhibit	120
CSCCC(NC(=O)C(NC(=O)C(CC(C)C)CC(O)C(NC(=O)OC(C)(C)C)C(C)O)C(C)C)C(=O)NC(C)c1ccccc1 [TLVM-8, [5S-(tert-butoxycarbonylamino)-4R,6R-dihydroxy-2R-(2-methylpropyl)heptanoyl]-L-valyl-L-methionine (S)-α-methylbenzylamide]	101	102	101	98	91	8	0.27	specifically inhibited	32	did not inhibit	118
CSCCC(NC(=O)C(NC(=O)C(CC(C)C)CC(O)C(NC(=O)OC(C)(C)C)C(C)O)C(C)C)C(=O)NCc1ccc(F)cc1 [TLVM-9, [5S-(tert-butoxycarbonylamino)-4R,6R-dihydroxy-2R-(2-methylpropyl)heptanoyl]-L-valyl-L-methionine 4-fluorobenzylamide]	104	106	106	105	93	57	0.27	specifically inhibited	43	did not inhibit	158

Reference: US8501813B2, “γ-secretase inhibitor” (Kabushiki Kaisha Yakult Honsha, priority 2007, dated 2013)
